{"source": "patent US20080213768A1", "about": "“Identification and use of biomarkers for non-invasive and early detection of liver injury” (priority 2006, published 2008)", "type_in_all_cases": "in vivo", "key": {"[1]": {"tested_on": "rat urine", "test": "Biochemical profiling (LC-MS) of rat urine after a single dose of acetaminophen", "parameters": "key to Pipecolate significantly changed / Ribose significantly changed / Tyrosine significantly changed: (x = significantly changed)"}, "[2]": {"tested_on": "human urine", "test": "Biochemical profiling of human urine after single oral dose of APAP, correlated with rat", "parameters": "key: X: Biochemicals significantly changed by APAP in both rat and human biological samples", "settings": "humans single oral dose of 4 g APAP", "procedure": "(§1) Six healthy human volunteers received a standardized soy shake diet for 72 hours. Each volunteer received a single oral dose of 4 g APAP (˜50 mg/kg). Serum and urine were sampled at 0, 6, 18, 24, 48, 72 and 96 hours (urine collected between these times). BCP analysis was carried out as described in Example 1."}, "[3]": {"tested_on": "rat serum", "test": "Biochemical profiling (LC-MS) of rat serum after a single dose of acetaminophen", "parameters": "key to Pipecolate significantly changed / Citrulline significantly changed: (x = significantly changed)"}, "[4]": {"tested_on": "human serum", "test": "Biochemical profiling of human serum after single oral dose of APAP, correlated with rat", "parameters": "key: X: Biochemicals significantly changed by APAP in both rat and human biological samples", "settings": "humans single oral dose of 4 g APAP", "procedure": "as §1"}}, "data": [{"smiles": "CC(=O)Nc1ccc(O)cc1", "note": "[acetaminophen]", "values": [{"measurement": "Pipecolate significantly changed", "setting": "[1]", "value": "x"}, {"measurement": "Ribose significantly changed", "setting": "[1]", "value": "x"}, {"measurement": "Tyrosine significantly changed", "setting": "[1]", "value": "x"}, {"measurement": "response for Peak13 in urine versus control", "setting": "[1]; study of Example 1", "value": "did not vary significantly from control"}, {"measurement": "responses of aspartic acid, Peak12, glutamine, Peak20, succinic acid and Peak26 versus control (baseline)", "setting": "[1]; study of Example 1", "value": "significant variation from control"}, {"measurement": "2-Oxoglutarate significantly changed by APAP in both rat and human", "setting": "[2]", "value": "X"}, {"measurement": "5-Hyroxytryptophan significantly changed by APAP in both rat and human", "setting": "[2]", "value": "X"}, {"measurement": "Cytosine significantly changed by APAP in both rat and human", "setting": "[2]", "value": "X"}, {"measurement": "Glutamate significantly changed by APAP in both rat and human", "setting": "[2]", "value": "X"}, {"measurement": "Lysine significantly changed by APAP in both rat and human", "setting": "[2]", "value": "X"}, {"measurement": "Serine significantly changed by APAP in both rat and human", "setting": "[2]", "value": "X"}, {"measurement": "Citrulline significantly changed", "setting": "[3]", "value": "x"}, {"measurement": "Pipecolate significantly changed", "setting": "[3]", "value": "x"}, {"measurement": "Peak13 presence in serum", "setting": "[3]; study of Example 1", "value": "not observed"}, {"measurement": "responses of aspartic acid, Peak12, glutamine, Peak20, succinic acid and Peak26 versus control (baseline)", "setting": "[3]; study of Example 1", "value": "significant variation from control"}, {"measurement": "Citrulline significantly changed by APAP in both rat and human", "setting": "[4]", "value": "X"}, {"measurement": "Creatinine significantly changed by APAP in both rat and human", "setting": "[4]", "value": "X"}, {"measurement": "Glutamate significantly changed by APAP in both rat and human", "setting": "[4]", "value": "X"}, {"measurement": "Glutamine significantly changed by APAP in both rat and human", "setting": "[4]", "value": "X"}, {"measurement": "Guanosine significantly changed by APAP in both rat and human", "setting": "[4]", "value": "X"}, {"measurement": "Homoserine significantly changed by APAP in both rat and human", "setting": "[4]", "value": "X"}, {"measurement": "Hypoxanthine significantly changed by APAP in both rat and human", "setting": "[4]", "value": "X"}, {"measurement": "Ornithine significantly changed by APAP in both rat and human", "setting": "[4]", "value": "X"}, {"measurement": "Phenylalanine significantly changed by APAP in both rat and human", "setting": "[4]", "value": "X"}, {"measurement": "Pipecolate significantly changed by APAP in both rat and human", "setting": "[4]", "value": "X"}]}]}
